Results: patent publication US7378265B2 (priority 1998, dated 2008)

System: recombinant retroviruses expressing the LacZ marker gene
Assay type: cell-based, retrovirus

Structure (SMILES): OC[C@H]1O[C@@H]2O[C@H]3[C@H](O)[C@@H](O)[C@@H](O[C@H]4[C@H](O)[C@@H](O)[C@@H](O[C@H]5[C@H](O)[C@@H](O)[C@@H](O[C@H]6[C@H](O)[C@@H](O)[C@@H](O[C@H]7[C@H](O)[C@@H](O)[C@@H](O[C@H]8[C@H](O)[C@@H](O)[C@@H](O[C@H]1[C@H](O)[C@H]2O)O[C@@H]8CO)O[C@@H]7CO)O[C@@H]6CO)O[C@@H]5CO)O[C@@H]4CO)O[C@@H]3CO [β-cyclodextrin]
- enhancement of the retroviral inactivation, additional factor: 10
